Common to all, as to format: in vivo
Assay [1] has as its system Winter Wheat variety 'Hereward'. Kind of assay: Example C crop damage test on Winter Wheat, post-emergence, no safener. The settings on record: Triticum aestivum, 312 h, rate 250 g/ha, evaluated after 13 days, read-out: Winter Wheat (Hereward) damage (100=total damage to plant; 0=no damage to plant). Here is the method: Seeds of the Winter Wheat variety ‘Hereward’ were sown in standard soil in pots. After 8 days cultivation under controlled conditions in a glasshouse (at 24/16° C., day/night; 14 hours light; 65% humidity), the plants were sprayed with an aqueous spray solution derived from the formulation of the technical active ingredient in acetone/water (50:50) solution containing 0.5% Tween 20 (polyoxyethelyene sorbitan monolaurate, CAS RN 9005-64-5). The test plants were then grown in a glasshouse under controlled conditions in a glasshouse (at 24/16° C., day/night; 14 hours light; 65% humidity) and watered twice daily. After 13 days for pre and post-emergence, the test was evaluated (100=total damage to plant; 0=no damage to plant).

Assay [2] deals with Lolium perenne (LOLPE). Kind of assay: Example B post-emergence herbicidal test, LOLPE. Conditions: Lolium perenne, 312 h, rate 250 g/ha, evaluated after 13 days, scale 0-100, read-out: Post-emergence activity LOLPE (100=total damage to plant; 0=no damage to plant). The method in brief:
(§1)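 Plants grown from seed in standard soil for 8 days in a glasshouse (24/16 °C day/night, 14 h light, 65% humidity), then sprayed with an aqueous solution from the active ingredient formulated in acetone/water (50:50) with 0.5% Tween 20. Damage scored after 13 days, 0 (none) to 100 (total).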

Assay [3] deals with Avena fatua (AVEFA). Kind of assay: Example B pre-emergence herbicidal test, AVEFA. The settings on record: Avena fatua, 312 h, rate 250 g/ha, evaluated after 13 days, 100=total damage to plant, 0=no damage to plant. The procedure, abridged:
(§2)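 Pre-emergence spray one day after sowing; vehicle acetone/water (50:50), 0.5% Tween 20. Percent damage (0 = no effect, 100 = plant killed) recorded 13 days later.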

The test system of assay [4] is Lolium perenne (LOLPE). Kind of assay: Example B pre-emergence herbicidal test, LOLPE. Conditions: Lolium perenne, 312 h, rate 250 g/ha, evaluated after 13 days, 100=total damage to plant, 0=no damage to plant. The procedure, abridged:
as §2

Assay [5] has as its system Winter Wheat variety 'Hereward' seed treated with cloquintocet mexyl. Kind of assay: Example C crop damage test on Winter Wheat seed treated with safener cloquintocet mexyl, post-emergence. Conditions: rate 250 g/ha, seed treated with cloquintocet mexyl 0.5 grams per kilogram of dry seed, evaluated after 13 days. Here is the method: Seeds of the Winter Wheat variety ‘Hereward’ were seed treated with a wettable powder formulation of the cereal herbicide safener, cloquintocet mexyl, at a rate of 0.5 grams per kilogram of dry seed prior to the initiation of glasshouse testing. One seed was sown per 1.5 inch plastic pot into a sandy loam soil at a depth of 1 cm, 8 days prior to application of the test compounds and was watered and grown under controlled conditions in a glasshouse (at 24/16° C., day/night; 14 hours light; 65% humidity). The plants were sprayed Post-emergence with an aqueous spray solution derived from the formulation of the technical active ingredient in acetone/water (50:50) solution containing 0.5% Tween 20 (polyoxyethelyene sorbitan monolaurate, CAS RN 9005-64-5). The test plants were then grown in a glasshouse under controlled conditions in a glasshouse (at 24/16° C., day/night; 14 hours light; 65% humidity) and watered twice daily. After 13 days for pre and post-emergence, the test was evaluated (100=total damage to plant; 0=no damage to plant).

In assay [6] the test system is Avena fatua (AVEFA). The assay can be described thus: Example B post-emergence herbicidal test, AVEFA. Conditions: Avena fatua, 312 h, rate 250 g/ha, evaluated after 13 days, scale 0-100, read-out: Post-emergence activity AVEFA (100=total damage to plant; 0=no damage to plant). The procedure, abridged: as §1
For assay [7], the system named is Echinochloa crus-galli (ECHCG). The assay can be described thus: Example B pre-emergence herbicidal test, ECHCG. The settings on record: Echinochloa crus-galli, 312 h, rate 250 g/ha, evaluated after 13 days, 100=total damage to plant, 0=no damage to plant. The method in brief:
as §2

Assay [8] deals with Alopecurus myosuroides (ALOMY). The assay can be described thus: Example B pre-emergence herbicidal test, ALOMY. The settings on record: Alopecurus myosuroides, 312 h, rate 250 g/ha, evaluated after 13 days, 100=total damage to plant, 0=no damage to plant. The method in brief:
as §2

Assay [9] concerns Alopecurus myosuroides (ALOMY). Kind of assay: Example B post-emergence herbicidal test, ALOMY. The settings on record: Alopecurus myosuroides, 312 h, rate 250 g/ha, evaluated after 13 days, scale 0-100, read-out: Post-emergence activity ALOMY (100=total damage to plant; 0=no damage to plant). The procedure, abridged: as §1
Assay [10] relates to Echinochloa crus-galli (ECHCG). Kind of assay: Example B post-emergence herbicidal test, ECHCG. Conditions: Echinochloa crus-galli, 312 h, rate 250 g/ha, evaluated after 13 days, scale 0-100, read-out: Post-emergence activity ECHCG (100=total damage to plant; 0=no damage to plant). The method in brief:
as §1

As for `Cc1cc(C)c(C2=C(OC(=O)C(C)(C)C)CC(CC3CCOC3)C2=O)c(C)c1` (centres unmarked) [Compound P7], the crop damage to winter wheat at 250 g/ha in [1] came to 70%. The pest or weed control at 250 g/ha amounted to 100% in [2]; 90% in [3]; 100% in [4]; 80% in assay [6]; 100% in assay [7]; 100% in assay [8]. Besides, the pest or weed control at 250 g/ha in [9] was found to be 100%; in assay [10], 90%. Further, the “Winter Wheat (Hereward) + cloquintocet mexyl damage (100=total damage to plant; 0=no damage to plant)” value in assay [5] amounted to 0.
`Cc1cc(C)c(C2=C(OC(=O)C(C)(C)C)C/C(=C\C3CCOCC3)C2=O)c(C)c1` [Compound P11]: in assay [1], the crop damage to winter wheat at 250 g/ha worked out at 80%. Besides, the pest or weed control at 250 g/ha in assay [2] was found to be 100%; in assay [3], 100%; in [4], 100%; in assay [6] it was 90%; in assay [7], 100%; in assay [8] it was 100%. Further, the pest or weed control at 250 g/ha in assay [9] is 90%; in assay [10] it was 100%. Also, in assay [5], the “Winter Wheat (Hereward) + cloquintocet mexyl damage (100=total damage to plant; 0=no damage to plant)” value is 70.
Consider `Cc1cc(C)c(C2=C(OC(=O)C(C)C)CC(CC3CCOC3)C2=O)c(C)c1` (centres unmarked) [Compound P13], for which the crop damage to winter wheat at 250 g/ha in assay [1] was 70%. The pest or weed control at 250 g/ha in [2] was 100%; in assay [3], 90%; in [4], 100%; in [6], 90%; in assay [7], 100%; in assay [8], 100%. Also, the results for the pest or weed control at 250 g/ha in [9] and in assay [10] were 90% and 100%, respectively. Moreover, the “Winter Wheat (Hereward) + cloquintocet mexyl damage (100=total damage to plant; 0=no damage to plant)” value in assay [5] was 10.
For `CCCCCCC(=O)OC1=C(c2c(C)cc(C)cc2C)C(=O)C(CC2CCOC2)C1` (centres unmarked) [Compound P16], the crop damage to winter wheat at 250 g/ha in assay [1] came to 70%. Also, the pest or weed control at 250 g/ha in assay [2] was 100%; in [3], 90%; in assay [4] it was 100%; in [6], 100%; in [7], 100%; in assay [8], 100%. Also, the pest or weed control at 250 g/ha in assay [9] and in assay [10] was 100% throughout. For the same molecule, the “Winter Wheat (Hereward) + cloquintocet mexyl damage (100=total damage to plant; 0=no damage to plant)” value in assay [5] is on record as 0.
Regarding `Cc1cc(C)c(C2=C(OC(=O)c3ccccc3)CC(CC3CCOC3)C2=O)c(C)c1` (centres unmarked) [Compound P17], the crop damage to winter wheat at 250 g/ha in assay [1] came to 70%. Moreover, the pest or weed control at 250 g/ha was 100% in assay [2]; 90% in [3]; 100% in assay [4]; 90% in assay [6]; 90% in assay [7]; 100% in assay [8]. In addition, the pest or weed control at 250 g/ha in assay [9] and in [10] was 100% in each case. The “Winter Wheat (Hereward) + cloquintocet mexyl damage (100=total damage to plant; 0=no damage to plant)” value in assay [5] is recorded as 0.
Regarding `CCCOC(=O)OC1=C(c2c(C)cc(C)cc2C)C(=O)C(CC2CCOC2)C1` (centres unmarked) [Compound P20], the crop damage to winter wheat at 250 g/ha in assay [1] was found to be 40%. Further, the pest or weed control at 250 g/ha came to 100% in assay [2]; 90% in assay [3]; 100% in [4]; 90% in [6]; 80% in [7]; 100% in assay [8]. The pest or weed control at 250 g/ha in [9] and in assay [10] was 100% in each case. Further, the “Winter Wheat (Hereward) + cloquintocet mexyl damage (100=total damage to plant; 0=no damage to plant)” value in assay [5] came out at 0.
Consider `Cc1cc(C)c(C2=C(OC(=O)OC(C)C)CC(CC3CCOCC3)C2=O)c(C)c1` (centres unmarked) [Compound P43], for which the crop damage to winter wheat at 250 g/ha in [1] amounted to 50%. The pest or weed control at 250 g/ha in [2] came out at 100%; in [3], 100%; in assay [4], 100%; in assay [6], 90%; in assay [7] it was 100%; in assay [8], 100%. The pest or weed control at 250 g/ha in assay [9] and in assay [10] was 100% each time. In addition, the “Winter Wheat (Hereward) + cloquintocet mexyl damage (100=total damage to plant; 0=no damage to plant)” value in assay [5] is recorded as 40.
Turning to `Cc1cc(C)c(C2=C(OC(=O)c3ccccc3)CC(CC3CCOCC3)C2=O)c(C)c1` (centres unmarked) [Compound P44], in assay [1], the crop damage to winter wheat at 250 g/ha was determined as 70%. Besides, the pest or weed control at 250 g/ha in assay [2] was 100%; in assay [3] it was 90%; in assay [4], 100%; in assay [6], 100%; in assay [7], 100%; in assay [8], 100%. Moreover, the pest or weed control at 250 g/ha in assay [9] and in assay [10] was 100% throughout. Besides, in [5], the “Winter Wheat (Hereward) + cloquintocet mexyl damage (100=total damage to plant; 0=no damage to plant)” value is recorded as 40.
On to `CON1CCC(CC2CC(OC(=O)OC(C)C)=C(c3c(C)cc(C)cc3C)C2=O)CC1` (centres unmarked) [Compound P56], for which, in assay [1], the crop damage to winter wheat at 250 g/ha came out at 90%. For the same molecule, the pest or weed control at 250 g/ha in assay [2] worked out at 100%; in [3], 90%; in [4], 100%; in assay [6], 100%; in assay [7], 100%; in assay [8], 100%. Further, the pest or weed control at 250 g/ha in assay [9] and in [10] was 90% in each case. The “Winter Wheat (Hereward) + cloquintocet mexyl damage (100=total damage to plant; 0=no damage to plant)” value in [5] stood at 60.
Turning to `Cc1cc(C)c(C2C(=O)C/C(=C\C3CCS(=O)(=O)CC3)C2=O)c(C)c1` (centres unmarked) [Compound T10], the crop damage to winter wheat at 250 g/ha in assay [1] is 60%. Moreover, the pest or weed control at 250 g/ha worked out at 70% in [2]; 40% in assay [3]; 90% in [4]; 80% in assay [6]; 70% in assay [7]; 70% in assay [8]. Also, the figures for the pest or weed control at 250 g/ha in assay [9] and in assay [10] were 70% and 80%, respectively. Moreover, the “Winter Wheat (Hereward) + cloquintocet mexyl damage (100=total damage to plant; 0=no damage to plant)” value in assay [5] was found to be 20.
As to `CCc1cc(C)cc(CC)c1C1C(=O)C(CC2CCOCC2)C(CC2CCOCC2)C1=O` (centres unmarked) [Compound T12], in assay [1], the crop damage to winter wheat at 250 g/ha was found to be 70%. Besides, the pest or weed control at 250 g/ha in assay [2], in [3], in assay [4], in assay [6], in assay [7] and in assay [8] was 100% in each case. The pest or weed control at 250 g/ha in assay [9] and in assay [10] was 100% each time. For the same molecule, the “Winter Wheat (Hereward) + cloquintocet mexyl damage (100=total damage to plant; 0=no damage to plant)” value in [5] was 60.

Values taken from US9096560B2, “5-heterocyclylalkyl-3-hydroxy-2-phenylcyclopent-2-enones as herbicides” (Syngenta Limited, priority 2008, dated 2015).
